From patent publication US6419962B1, “External skin treatment composition” (Shiseido Company, Ltd., priority 1996, dated 2002)

Assay: Moisture retention effect (coefficient of rate of moisture evaporation from weight change of sample)
Assay type: physicochemical
Details: 50 wt % aqueous solution
Procedure: The moisture retention effect of unicellularized carrot ([…]) was studied in comparison with water, glycerin ([…]), a methanol extract of carrot ([…]), and DPG (dipropylene glycol) ([…]).
That is, 50 μl each of the above samples was placed on a chemical balance placed in a room held to 22° C. and a dry humidity of 45%. The change in weight was measured every three minutes for seven times in total. From the results, the coefficient of the rate of moisture evaporation in the sample (coefficient k of rate of moisture evaporation found as dW/dt=kW where the amount of moisture is W and the elapsed time is t, that is, logW=kt+C (C is a constant)) was calculated. […]
Note that the method of study of this moisture retention effect was the same as the method used in the above Test Example A2. […]
Note that the method of study of the moisture retention effect was the same as the method performed in the above Test Example A2.
The moisture retention effect of unicellularized iris rhizome was studied in comparison with purified water, glycerol, and an ethanol extract of iris rhizome.
That is, with the exception of the purified water, a 50 wt % aqueous solution was prepared and the coefficient of the moisture evaporation rate was found in the same way as the study of the moisture retention effect of unicellularized carrot (Test Example A2). […]

SMILES: OCC(O)CO [Glycerol]
- Coefficient of moisture evaporation rate: −0.0230
